Assay results as given in PMC9322761, “Design, Synthesis and Biological Characterization of Histone Deacetylase 8 (HDAC8) Proteolysis Targeting Chimeras (PROTACs) with Anti-Neuroblastoma Activity” (International Journal of Molecular Sciences, 2022).
Where two headings read alike, the source gives them in different places.

Experiments:
HDAC8 [1] = target: T1, HDAC8 (Homo sapiens, UniProt Q9BY41); assay: In vitro HDAC8 activity assay (Fluor de Lys-HDAC8); type: biochemical; parameters: made in house; settings: for IC50: Table 1, PROTACs; for SI (HDAC6/HDAC8): selectivity index, HDAC6 over HDAC8
T1 sequence (Q9BY41 1-377): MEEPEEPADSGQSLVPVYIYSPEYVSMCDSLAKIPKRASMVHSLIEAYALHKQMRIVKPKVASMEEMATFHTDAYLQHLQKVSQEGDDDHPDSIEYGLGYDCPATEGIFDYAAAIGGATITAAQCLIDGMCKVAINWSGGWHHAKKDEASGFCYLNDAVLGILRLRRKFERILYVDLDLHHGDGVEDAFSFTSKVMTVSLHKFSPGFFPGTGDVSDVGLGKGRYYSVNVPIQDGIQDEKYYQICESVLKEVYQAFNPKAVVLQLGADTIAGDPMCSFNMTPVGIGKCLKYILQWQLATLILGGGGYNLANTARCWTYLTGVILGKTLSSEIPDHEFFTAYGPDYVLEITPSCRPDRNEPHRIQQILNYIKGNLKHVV
Method: Recombinant hHDAC8 was produced by Romier et al. in Strasbourg. The HDAC8 activity assays were performed according to the commercial HDAC8 Fluorometric Drug Discovery Kit (Fluor de Lys(R)-HDAC8, BML-KI178) corresponding to the instructions of the manufacturer. As substrate a tetrapeptide connected to aminomethylcoumarin (AMC) H2N-Arg- His-Lys(Ac)-Lys(Ac)-AMC was synthesized as previously described. The enzyme was incubated for 90 min at 37 °C, with a substrate concentration of 50 µM and increasing concentrations of inhibitors. The stop-solution-containing inhibitor was added to stop the hHDAC8 activity, and Trypsin was added to release the AMC. The solution was incubated for 20 min at 37 °C to develop the assay.
(§1) Inhibition was measured at increasing concentration and IC50 was calculated by nonlinear regression with Origin 9.0G software.

HDAC1 = HDAC1 (Homo sapiens, UniProt Q13547); assay: In vitro HDAC inhibitory activity assay, recombinant HDAC1 (fluorogenic substrate ZMAL); type: biochemical; parameters: purchased BPS Biosciences; settings: for inhibition at 1 µM / inhibition at 10 µM: read-out: HDAC1 % inhib. at given conc.
Method: (§2) The in vitro testing on recombinant HDACs was performed as previously described. Recombinant human HDAC1 and −6 were purchased from BPS Biosciences. The enzyme inhibition was determined by using a reported homogenous fluorescence assay. […] Fluorescence intensity was measured at an excitation wavelength of 390 nm and an emission wavelength of 460 nm in a microtiter plate reader (BMG Polarstar).
as §1

HDAC6 = target: T2, HDAC6 (Homo sapiens, UniProt Q9UBN7); assay: In vitro HDAC inhibitory activity assay, recombinant HDAC6 (fluorogenic substrate ZMAL); type: biochemical; parameters: purchased BPS Biosciences; settings: for inhibition at 1 µM / inhibition at 10 µM: read-out: HDAC6 % inhib. at given conc.
T2 sequence (Q9UBN7 1-1215): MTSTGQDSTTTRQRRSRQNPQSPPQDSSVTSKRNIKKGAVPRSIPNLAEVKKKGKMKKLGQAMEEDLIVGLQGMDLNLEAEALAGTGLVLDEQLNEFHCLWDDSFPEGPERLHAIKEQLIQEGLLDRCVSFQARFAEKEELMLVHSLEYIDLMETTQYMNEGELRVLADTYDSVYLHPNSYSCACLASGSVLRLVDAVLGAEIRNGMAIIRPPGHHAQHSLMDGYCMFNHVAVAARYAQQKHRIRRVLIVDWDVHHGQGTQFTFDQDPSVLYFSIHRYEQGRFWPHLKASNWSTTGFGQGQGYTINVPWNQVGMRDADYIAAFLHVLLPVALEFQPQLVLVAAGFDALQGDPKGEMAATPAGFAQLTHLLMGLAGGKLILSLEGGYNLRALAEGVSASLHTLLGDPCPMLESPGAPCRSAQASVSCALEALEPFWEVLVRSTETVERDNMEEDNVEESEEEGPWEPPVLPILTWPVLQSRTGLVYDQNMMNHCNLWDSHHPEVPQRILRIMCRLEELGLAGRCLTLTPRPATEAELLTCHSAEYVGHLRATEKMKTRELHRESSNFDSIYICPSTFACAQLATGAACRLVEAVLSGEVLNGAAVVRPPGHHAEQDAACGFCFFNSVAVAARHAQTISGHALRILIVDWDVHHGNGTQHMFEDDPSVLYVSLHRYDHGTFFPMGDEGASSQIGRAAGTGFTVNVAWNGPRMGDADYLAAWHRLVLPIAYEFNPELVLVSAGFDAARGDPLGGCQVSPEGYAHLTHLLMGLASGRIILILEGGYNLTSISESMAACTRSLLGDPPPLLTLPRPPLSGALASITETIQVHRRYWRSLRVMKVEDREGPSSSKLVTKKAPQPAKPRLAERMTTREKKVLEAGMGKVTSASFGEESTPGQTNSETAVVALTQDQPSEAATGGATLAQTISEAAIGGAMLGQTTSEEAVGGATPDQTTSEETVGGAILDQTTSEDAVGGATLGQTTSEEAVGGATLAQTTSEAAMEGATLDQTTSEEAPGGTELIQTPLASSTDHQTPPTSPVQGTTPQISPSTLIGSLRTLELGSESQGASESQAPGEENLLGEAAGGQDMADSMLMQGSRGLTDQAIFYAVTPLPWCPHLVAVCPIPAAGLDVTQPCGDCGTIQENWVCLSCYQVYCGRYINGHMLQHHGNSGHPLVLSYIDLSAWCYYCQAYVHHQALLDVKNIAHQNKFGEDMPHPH
Method: as §2, §1

SK-N-BE(2)-C cells = assay: Colony formation assay in neuroblastoma cells; type: cell-based, human; settings: 5 and 10 μM, treatment 96 h, then 6 days without treatment
Method: In order to measure the functional consequence of HDAC8 inhibition, two different cell lines were used: SK-N-BE(2)-C cells, which display MYCN amplification and non-functional p53; and IMR-32 cells having p53 wild type, which both respond with growth arrest and signs of neuronal differentiation upon knockdown or selective inhibition of HDAC8. Growth arrest was determined by colony formation and viability assays. Cells were treated with 5 and 10 μM of each of the CRBN_ based HDAC8 PROTACs having a triazole linker (CRBN_1d, CRBN_1e, CRBN_1f) for 96 h, followed by culturing for another 6 days without treatment (Figure 5A). This assesses whether the treatment impairs the clonogenic growth capacity of tumor cells, indicating effectiveness of compounds on the survival and proliferation of tumor cells.
In six-well plates, 500 cells were seeded and treated as indicated. Viable colonies were stained after a minimum of 10 days with crystal violet. For quantification, the mean intensity of each well of the 8-bit binary picture was measured with ImageJ software (U. S. National Institutes of Health, Bethesda, MD, USA; http://imagej.nih.gov/ij/ (accessed on 1 March 2022)).
Figure 5 (A) Neuroblastoma SK-N-BE(2)-C cells; Colony Assay, 10 days (compound treatment within first 96 h). Stained with crystal violet and quantified with ImageJ. (B,C) Trypan Blue assay for detection of dead cells. Neuroblastoma IMR-32 cells were either treated with 5 µM (B) or 10 µM (C). (D,E) Cell proliferation assessed via counting of viable cells. IMR-32 cells were either treated with 5 µM (D) or 10 µM (E) PROTACs. HDAC8i PCI-34501 served as a positive control, untreated (MEM) and solvent (DMSO) treated cells served as negative controls.

HDAC8 [2] = target: T1, HDAC8; assay: HDAC8 degradation in SK-N-BE(2)-C neuroblastoma cells (Western blot); type: cell-based; parameters: endogenous in cells; host or cells: SK-N-BE(2)-C
Method: Whole cell lysates from treated SK-N-BE(2)-C neuroblastoma cells were taken and the protein levels for HDAC8 and the acetylation of its substrate SMC3 were determined (Figure 6). As a control for HDAC6, we also assessed acetylation levels of α-tubulin. […] Western blot analysis was performed as described previously (Kolbinger et al.).
Figure 6 (A) SK-N-BE(2)-C neuroblastoma cells were treated for indicated time points with 10 µM of PROTACs. Degradation of HDAC8 and acetylation of HDAC8 target was analyzed via Western blot. (B) SK-N-BE(2)-C neuroblastoma cells were treated for 6 h with indicated concentrations of HyT_1p, CRBN_1b and HyT_1m. Acetylation of HDAC8 target SMC3 and HDAC6 target tubulin, as well as total HDAC8 levels, were assessed by Western blot. Quantified ac-SMC3 or ac-tubulin expression, respectively, was normalized to the respective tubulin loading control and to the solvent control (DMSO). This quantification is reflected by the numbers below each blot. […] Total HDAC6, total HDAC1, total HDAC8, and acetyl-histone H4 expression levels, were assessed by Western blot. Total GAPDH protein levels served as a loading control (LC). * unspecific bands obtained through reprobing of the membrane.

Chain of HDAC1 (Q13547 whole entry): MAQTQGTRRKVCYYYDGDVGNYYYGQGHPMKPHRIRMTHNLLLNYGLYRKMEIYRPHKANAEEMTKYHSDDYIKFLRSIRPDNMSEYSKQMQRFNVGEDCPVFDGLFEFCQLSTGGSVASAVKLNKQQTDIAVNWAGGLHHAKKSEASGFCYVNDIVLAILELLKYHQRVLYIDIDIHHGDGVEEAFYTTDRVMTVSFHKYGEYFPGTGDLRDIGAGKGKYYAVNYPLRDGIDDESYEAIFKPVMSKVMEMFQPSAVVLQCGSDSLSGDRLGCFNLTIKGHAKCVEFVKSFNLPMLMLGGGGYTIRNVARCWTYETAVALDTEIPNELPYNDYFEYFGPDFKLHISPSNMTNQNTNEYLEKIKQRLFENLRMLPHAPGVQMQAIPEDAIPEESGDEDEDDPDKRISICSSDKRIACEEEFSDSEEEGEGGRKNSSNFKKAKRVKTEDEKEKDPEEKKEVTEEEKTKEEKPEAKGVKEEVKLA

| Structure (SMILES) | IC50 (HDAC8 [1]) | SI (HDAC6/HDAC8) (HDAC8 [1]) | inhibition at 1 µM (HDAC1) | inhibition at 10 µM (HDAC1) | IC50 (HDAC6; Table 1, PROTACs, read-out: HDAC6 IC50) | inhibition at 1 µM (HDAC6) | inhibition at 10 µM (HDAC6) | IC50 (HDAC1) | Effect on colony formation (SK-N-BE(2)-C cells) | IC50 (HDAC6) | HDAC8 degradation (HDAC8 [2]; SK-N-BE(2)-C cells, up to 10 µM, Western blot) | HDAC8 degradation with de novo protein synthesis inhibited (HDAC8 [2]; 24 h, cycloheximide 35 nM, PROTAC 10 μM) |
| --- | --- | --- | --- | --- | --- | --- | --- | --- | --- | --- | --- | --- |
| COc1ccc(C(=O)NO)cc1NC(=O)c1ccc(CNC(=O)CCCCCCCNC(=O)CC23CC4CC(CC(C4)C2)C3)cc1 [HyT_1o] | 90 ± 10 nM | 4 | 9.8% | 52.6% | 370 ± 30 nM | – | – | – | – | – | – | – |
| O=C(COc1ccc(C(=O)Nc2cccc(C(=O)NO)c2)cc1)NCCCOCCOCCOCCCNc1cccc2c1C(=O)N(C1CCC(=O)NC1=O)C2=O (stereo not shown) [CRBN_1j] | 4840 ± 1050 nM | – | 13.9% | 60% | – | 46.2% | 80.9% | – | – | – | – | – |
| O=C(COc1ccc(CNc2cc(C(=O)NO)ccc2Cl)cc1)NCCCOCCOCCOCCCNc1cccc2c1C(=O)N(C1CCC(=O)NC1=O)C2=O (stereo not shown) [CRBN_1h] | 330 ± 190 nM | – | – | – | – | 33.5% | 66.8% | 3910 ± 480 nM | – | – | – | – |
| Cc1ccc(C(=O)NO)cc1NCc1ccc(OCc2cn(CCCCCC(=O)Nc3cccc4c3C(=O)N(C3CCC(=O)NC3=O)C4=O)nn2)cc1 (stereo not shown) [CRBN_1d] | 370 ± 50 nM | 18 | – | – | – | – | – | 13100 ± 600 nM | strongest effect on colony formation | 6700 ± 600 nM | failed to degrade HDAC8 | – |
| O=C(COc1ccc(C(=O)Nc2cc(C(=O)NO)ccc2Cl)cc1)NCCCOCCOCCOCCCNc1cccc2c1C(=O)N(C1CCC(=O)NC1=O)C2=O (stereo not shown) [CRBN_1i] | 650 ± 140 nM | – | 20.7% | 67.4% | – | 85.4% | 92.3% | – | – | – | – | – |
| C[C@@H]1C[C@@H]([C@H](O)CC2CC(=O)NC(=O)C2)C(=O)[C@@H](C)C1 [cycloheximide, reference compound] | – | – | – | – | – | – | – | – | – | – | – | no effect |
| O=C(COc1ccc(CNc2cc(C(=O)NO)ccc2Cl)cc1)NCCCCCNc1cccc2c1C(=O)N(C1CCC(=O)NC1=O)C2=O (stereo not shown) [CRBN_1g] | 590 ± 110 nM | – | 10.1% | 69% | – | 24.8% | 72.6% | – | – | – | – | – |
